Assay results from patent publication US20250171415A1, “SALT OF SUBSTITUTED AMINO SIX-MEMBERED NITRIC HETEROCYCLIC COMPOUND, CRYSTAL FORM THEREOF, METHOD FOR PREPARING SAME, AND USE THEREOF” (SHANGHAI RUNSHI MEDICAL TECHNOLOGY CO., LTD., priority 2022, published 2025).
Counter-ions that a name gives are not always drawn.

Tests used:
[1] = Solubility experiments of compound of formula (I) and salts thereof; format: physicochemical; conditions: 25° C.
[2] = Water sorption and desorption experiments (DVS hygroscopicity); format: physicochemical; conditions: 40%-80% relative humidity, 25° C.
[3] = tested on: human lung cancer NCI-H1581 nude mouse subcutaneous xenograft tumor; test: Efficacy in human lung cancer NCI-H1581 nude mouse subcutaneous xenograft tumor model; format: in vivo
From the text: The human lung cancer NCI-H1581 cell strain (preserved by Shanghai Institute of Materia Medica, Chinese Academy of Sciences) was inoculated subcutaneously in the right axilla of nude mice with an inoculation amount of the cells of 5×10^6 cells/mouse. The formed xenograft tumor was directly inoculated for use.
The tumor tissue in the vigorous growth phase was cut into about 1.5 mm^3 and was inoculated subcutaneously in the right axilla of the nude mouse under sterile conditions. The diameter of the subcutaneous xenograft tumor in the nude mouse was measured using a vernier caliper, and the animals were randomly grouped after the tumors grew to an average volume of about 150-160 mm^3. Animals in the Example 3 sample group were orally administered at 10 mg/kg, 5 mg/kg, and 2.5 mg/kg once a day for two consecutive weeks. Animals in the […] (AZD4547) were orally administered at 12.5 mg/kg once a day for two consecutive weeks. Throughout the experiment, the diameter of the xenograft tumor was measured 2 times a week, and the body weight of the mice was measured at the same time. The tumor volume (TV) was calculated as follows: TV=½×a×b^2, wherein a and b represent the length and width, respectively. The relative tumor volume (RTV) was calculated from the measurement results using the following formula: RTV=Vt/V0, wherein V0 is the tumor volume measured at the time of grouping and administration (d0), and Vt is the tumor volume at each measurement. The evaluation index of the anti-tumor activity was the relative tumor proliferation rate T/C (%), which was calculated as follows: T/C (%)=(TRTV/CRTV)×100%, wherein TRTV represents RTV of the treatment group; CRTV represents RTV of the negative control group.

[4] = Solid stability study of dihydrochloride salt crystal form I; format: physicochemical
From the text: (in a covered sample flask) for 7 days, and for physical stability at room temperature/92.5% RH (uncovered) for 10 days.

[5] = Solid grinding stability: solid grinding, XRPD; format: physicochemical; conditions: 20 mg ground in a mortar for 2 min and 5 min
Method: 20 mg of the sample in Example 3 was weighed out, added to a mortar, and ground for 2 min and 5 min, respectively. Then, the sample was characterized by XRPD.

[6] = Solid grinding stability: dropwise addition of solvents and grinding; format: physicochemical; conditions: ground
[7] = Na2HPO4-citric acid buffer (pH 4.6)
[8] = 40° C./75% RH (uncovered) for 7 days
[9] = 60° C. (covered sample flask) for 7 days

SMILES: CNC(=O)c1cccc2cc(Oc3ccnc(NC(=O)c4ccc(N5C[C@@H](C)N[C@@H](C)C5)cc4)c3)ccc12 [Compound of formula (I)]
- Solubility [1, 7]: 45 µg/mL
- Solubility ([1]; deionized water): 8 µg/mL

SMILES: C[C@@H]1COC(Nc2ccc3ncnc(Nc4ccc(OCc5nccs5)c(Cl)c4)c3c2)=N1.O=C(O)/C=C\C(=O)O [Maleate salt]
- Hygroscopicity (%) [2]: 0.81%
- Solubility [1, 7]: 30 µg/mL
- Solubility ([1]; deionized water): 2000 µg/mL

SMILES: COc1cc(CCc2cc(NC(=O)c3ccc(N4C[C@@H](C)N[C@@H](C)C4)cc3)n[nH]2)cc(OC)c1 [AZD4547, reference compound]
- T/C (relative tumor proliferation rate) ([3]; 12.5 mg/kg orally once a day for two consecutive weeks): 20.01%

SMILES: CNC(=O)c1cccc2cc(Oc3ccnc(NC(=O)c4ccc(N5C[C@@H](C)N[C@@H](C)C5)cc4)c3)ccc12 [Dihydrochloride salt crystal form I]
- Purity [4, 8]: 99.86
- XRPD (crystal form) [4, 8]: Not changed
- Purity [4, 9]: 99.85
- XRPD (crystal form) [4, 9]: Not changed
- Purity ([4]; T0): 99.85
- XRPD (crystal form) ([4]; room temperature/92.5% RH (uncovered) for 10 days): Not changed
- Crystal form of the ground sample (XRPD) [5]: not changed
- T/C (relative tumor proliferation rate) ([3]; 2.5 mg/kg orally once a day for two consecutive weeks): 49.06%
- T/C (relative tumor proliferation rate) ([3]; 5 mg/kg orally once a day for two consecutive weeks): 33.22%
- T/C (relative tumor proliferation rate) ([3]; 10 mg/kg orally once a day for two consecutive weeks): 17.17%
- Effect on the growth of xenograft tumors ([3]; 10 mg/kg, 5 mg/kg and 2.5 mg/kg orally once a day for two consecutive weeks): significant inhibitory effect
- Animal condition and mortality during the experiment ([3]; 10, 5 and 2.5 mg/kg orally once a day for two weeks, nude mice): no mice died
- Hygroscopicity (%) [2]: 0.65%
- Solvent grinding result (crystal form) ([6]; Acetone added dropwise): Crystal form I
- Solvent grinding result (crystal form) ([6]; Acetonitrile added dropwise): Crystal form I
- Solvent grinding result (crystal form) ([6]; Butanone added dropwise): Crystal form I
- Solvent grinding result (crystal form) ([6]; Ethanol added dropwise): Crystal form I
- Solvent grinding result (crystal form) ([6]; Ethyl acetate added dropwise): Crystal form I
- Solvent grinding result (crystal form) ([6]; Isopropanol added dropwise): Crystal form I
- Solvent grinding result (crystal form) ([6]; Methanol added dropwise): Crystal form I
